A short description of series [1]: Solubility in water- or oil-based formulations. It is filed as physicochemical.
A short description of series [2]: Stability in pharmaceutical solvents / excipients at 30 and 40 °C.
Series [3] is described as follows: Plasma concentration after topical application to hairless rats. It is filed as in vivo, hairless rat.
For series [4] the following is noted: not told.

Bounds are passed on as bounds.

With `CC(=C/C(=O)O)/C(=C/c1ccc2cc3c(cc2c1)C(C)(C)CCC3(C)C)c1cccc(C(=O)O)c1` [BMS-188184-01, (2Z,4Z)-3-methyl-4-(3-carboxyphenyl)-5-[(1,2,3,4-tetrahydro-1,1,4,4-tetramethyl)-6-anthracenyl]-2,4-pentadienoic acid], the “solubility in water-based or oil-based formulations” value in series [1] is “virtually insoluble”.

In the case of `CC(=C/C(=O)O)/C(=C/c1ccc2cc3c(cc2c1)C(C)(C)CCC3(C)C)c1cccc(C(=O)O)c1` [BMS-188184-05], in series [2] (pharmaceutical solvents), the amount remaining (usually the share of the starting amount still present when the sample was taken) at 240 h was less than 90%.

In the case of `CC(=C/C(=O)O)/C(=C/c1ccc2cc3c(cc2c1)C(C)(C)CCC3(C)C)c1cccc(C(=O)O)c1` [BMS-188184-02, (2Z,4Z)-3-methyl-4-(3-carboxyphenyl)-5-[(1,2,3,4-tetrahydro-1,1,4,4-tetramethyl)-6-anthracenyl]-2,4-pentadienoic acid], in series [1], the “solubility in water-based or oil-based formulations” value is given as “soluble”. In addition, the “concentration of drug in plasma” value in series [3] (by 6 hours after topical application) was “below the limit of detection”. For the same compound, the Cmax in series [3] (rat, plasma, topical or ocular, dual system 2% ointment + SLS cream, single topical dose, read-out: peak plasma concentrations) came to 2400 ng/mL. Besides, in series [3] (rat, plasma, topical or ocular, dual system 2% ointment + SLS cream, single topical dose, read-out: time of peak plasma concentrations), the Tmax was 2 h.

`CC(=C/C(=O)O)/C(=C/c1ccc2cc3c(cc2c1)C(C)(C)CCC3(C)C)c1cccc(C(=O)O)c1` [BMS-188184, (2Z,4Z)-3-methyl-4-(3-carboxyphenyl)-5-[(1,2,3,4-tetrahydro-1,1,4,4-tetramethyl)-6-anthracenyl]-2,4-pentadienoic acid]: the “shelf life in these solvents” value in series [2] (30° C., propylene glycol, Transcutol, ethanol SD-40, PEG-8, water) was “less than 10 days”. The “stability in various pharmaceutical solvents” value in series [2] (propylene glycol, Transcutol, ethanol SD-40, PEG-8, water, 30° C. and 40° C.) is listed as “poor”. In addition, the “long-term (storage) stability in formulations / with permeation enhancers” value in series [4] was “stable in GEAHLENE base containing mineral oil and in petrolatum ointment containing fatty acid esters”.

Values taken from patent US6019988A, “Methods and compositions for enhancing skin permeation of drugs using permeation enhancers, when drugs and/or permeation enhancers are unstable in combination during long-term storage” (priority 1996, dated 2000).
